According to patent US9499509B2, “Dihydrochalcone derivatives and their use as antibiotic agents” (UNIVERSITÉ DU QUÉBEC À CHICOUTIMI, priority 2012, dated 2016):
Structures can show the parent of a compound that is named as a salt. Where two headings read alike, the source gives them in different places.

Tests used:
[1] = tested on: methicillin-resistant Staphylococcus aureus (MRSA) strains; experiment: Antibiotic assay (resazurin, Example 1), MRSA strains; format: cell-based; settings: Staphylococcus aureus, MRSA
Excerpt: (§1) Bacteria Strain. […] The MRSA were obtained as further described below.
(§2) Antibiotic agents. Cyprofloxacin and erythromycin were provided by Sigma-Aldrich. Gentamicin sulfate and vancomycin hydrochloride were provided by Calbiochem.
Isolation and identification of methicillin-resistant Staphylococcus aureus (MRSA) strains. From March 2007 to March 2008, 35 screening swabs from nares (n=31), throat (n=3), Groin pus (n=1) were obtained from patients hospitalized at Chicoutimi hospital. Identification of S. aureus was performed using the Slidex Staph-Kit (bioMerieux Vitek, Inc., Hazelwood, Mo.) according to the manufacturer's instructions. Quality control was performed with MRSA strain ATCC 43300 and S. aureus strain ATCC 25923. In addition, S. aureus profile was determined with API Staph test strip with bacterial suspension of saline McFarland of 0.5 (bioMerieux, Durham, N.C.) according to the manufacturer's protocol. API Staph strips were held for 24 h before the results were read. A latex agglutination (SLIDEX) test detecting methicilin resistance in Staphylococci based on the production of low-affinity PBP2a, which is encoded by the mecA gene was performed on all strains. An antibiogram was also performed to confirm the identification of MRSA strains using disk diffusion test.
Antibiotic susceptibility testing using disk diffusion method. The antimicrobial activity of different classes of antibiotics of the potential MRSA was determined by diffusion method (Kirby-Bauer) as described by NCCLS. The antibiotics tested included: penicillin (10 units), amoxicillin/clavulanic acid (20/10 μg), ciprofloxacin (5 μg), moxifloxacin (5 μg), levofloxacin (5 μg), clindamycin (15 μg), erythromycin (15 μg), cefoxitin (30 μg), linezolid (30 μg), trimethoprim/sulfomethoxazole (1.25/23.75 μg), rifampicin (5 μg), gentamicin (10 μg) and vancomycin (30 μg). The agar medium had pH 7.2 to 7.4 before inoculing potentiel MRSA. The antibiotics were maintained at 8° C. or lower −14° C. according to manufacturer's recommendations. The pure culture was inoculated on a non-selective plate for 18-24 h. Each colony was collected with a wire loop and transfered the growth to a tube containing 4 to 5 mL of a tryptic-soy broth. The inoculum density was standarized with BaSO4 using 0.5 McFarland standard. All strains were incubated at 37° C. until it achieves or exceeds the turbidity of 0.5 McFarland standard. Inoculation of the dried surface (Muller-Hinton agar plate) by streaking the swab over the entire sterile agar surface. This procedure was repeated two more times. After 15 min, the appropriate disk were applied on the surface with a sterile forceps. The inverted plates was placed in a incubator at 37° C./air/16 to 18 h or 24 h for vancomycin. The inhibition zones were measured with a millimetric ruler. Interpretation of zone sizes by references of the manufacturer. Quality control organisms used were ATCC strains number 25923.
(§3) MRSA. Ten (10) strains of MRSA obtained as described above were tested along with an S. aureus wild type (WT) strain (ATCC25923).

[2] = tested on: S. aureus wild type strain (ATCC 25923); experiment: Antibiotic assay (resazurin, Example 1), S. aureus wild type; format: cell-based, Staphylococcus aureus; settings: Staphylococcus aureus
Protocol: as §1, §2, §3

Streptococcus pneumoniae = experiment: Antibiotic assay (resazurin, Example 1), Streptococcus pneumoniae; format: cell-based; settings: for IC50 / MIC: Streptococcus pneumoniae
Protocol: as §1, §2
(§4) Five additional strains were tested: Streptococcus pneumoniae, Streptococcus agalactiae, Streptococcus pyogenes, Enterococcus faecalis and Corynebacterium jeikeium.

Enterococcus faecalis = experiment: Antibiotic assay (resazurin, Example 1), Enterococcus faecalis; format: cell-based; settings: Enterococcus faecalis
Protocol: as §1, §2, §4

Corynebacterium jeikeium = experiment: Antibiotic assay (resazurin, Example 1), Corynebacterium jeikeium; format: cell-based; settings: Corynebacterium jeikeium
Protocol: as §1, §2, §4

Streptococcus pyogenes = experiment: Antibiotic assay (resazurin, Example 1), Streptococcus pyogenes; format: cell-based; settings: Streptococcus pyogenes
Protocol: as §1, §2, §4

Streptococcus agalactiae = experiment: Antibiotic assay (resazurin, Example 1), Streptococcus agalactiae; format: cell-based; settings: Streptococcus agalactiae
Protocol: as §1, §2, §4

S. epidermidis = experiment: Antibiotic assay (resazurin, Example 1), S. epidermidis strains; settings: Staphylococcus epidermidis

CN[C@H](CC(C)C)C(=O)N[C@H]1C(=O)N[C@@H](CC(N)=O)C(=O)N[C@H]2C(=O)N[C@H]3C(=O)N[C@H](C(=O)N[C@H](C(=O)O)c4cc(O)cc(O)c4-c4cc3ccc4O)[C@H](O)c3ccc(c(Cl)c3)Oc3cc2cc(c3O[C@@H]2O[C@H](CO)[C@@H](O)[C@H](O)[C@H]2O[C@H]2C[C@](C)(N)[C@H](O)[C@H](C)O2)Oc2ccc(cc2Cl)[C@H]1O [Vancomycin, vancomycin hydrochloride, reference compound]
IC50 ([1]; MRSA1): 0.08 ± 0.01 µM | IC50 ([1]; MRSA2): 0.08 ± 0.01 µM | IC50 ([1]; MRSA3): 0.064 ± 0.007 µM | IC50 ([1]; MRSA4): 0.069 ± 0.009 µM | IC50 ([1]; MRSA5): 0.062 ± 0.006 µM | IC50 ([1]; MRSA6): 0.08 ± 0.01 µM | IC50 ([1]; MRSA7): 0.08 ± 0.01 µM | IC50 ([1]; MRSA8): 0.08 ± 0.01 µM | IC50 ([1]; MRSA9): 0.08 ± 0.01 µM | IC50 ([1]; MRSA10): 0.059 ± 0.006 µM | MIC ([1]; read-out: Minimum Inhibitory Concentration (MIC), MRSA1): 0.12 µM | MIC ([1]; read-out: Minimum Inhibitory Concentration (MIC), MRSA2): 0.13 µM | MIC ([1]; read-out: Minimum Inhibitory Concentration (MIC), MRSA3): 0.1 µM | MIC ([1]; read-out: Minimum Inhibitory Concentration (MIC), MRSA4): 0.1 µM | MIC ([1]; read-out: Minimum Inhibitory Concentration (MIC), MRSA5): 0.09 µM | MIC ([1]; read-out: Minimum Inhibitory Concentration (MIC), MRSA6): 0.2 µM | MIC ([1]; read-out: Minimum Inhibitory Concentration (MIC), MRSA7): 0.11 µM | MIC ([1]; read-out: Minimum Inhibitory Concentration (MIC), MRSA8): 0.11 µM | MIC ([1]; read-out: Minimum Inhibitory Concentration (MIC), MRSA9): 0.11 µM | MIC ([1]; read-out: Minimum Inhibitory Concentration (MIC), MRSA10): 0.09 µM | IC50 ([2]; ATCC25923): 0.4 ± 0.2 µM | MIC ([2]; ATCC25923, read-out: Minimum Inhibitory Concentration (MIC)): 1.44 µM | IC50 (Streptococcus pneumoniae; Strep. pneumoniae 14070): 0.09 ± 0.04 µM | IC50 (Streptococcus pneumoniae; Strep. pneumoniae 14112): 0.094 ± 0.008 µM | IC50 (Streptococcus pneumoniae; Strep. pneumoniae 14138): 0.13 ± 0.08 µM | IC50 (Streptococcus pneumoniae; Strep. pneumoniae 14144): > 10 µM | IC50 (Streptococcus pneumoniae; Strep. pneumoniae 14148): 0.084 ± 0.006 µM | MIC (Streptococcus pneumoniae; read-out: Minimum Inhibitory Concentration (MIC), Strep. pneumoniae 14070): 8.37 µM | MIC (Streptococcus pneumoniae; read-out: Minimum Inhibitory Concentration (MIC), Strep. pneumoniae 14112): 0.16 µM | MIC (Streptococcus pneumoniae; read-out: Minimum Inhibitory Concentration (MIC), Strep. pneumoniae 14138): > 10 µM | MIC (Streptococcus pneumoniae; read-out: Minimum Inhibitory Concentration (MIC), Strep. pneumoniae 14144): > 10 µM | MIC (Streptococcus pneumoniae; read-out: Minimum Inhibitory Concentration (MIC), Strep. pneumoniae 14148): 0.2 µM | activity against Streptococcus pneumoniae strain 14138 (Streptococcus pneumoniae; in words): had an activity | IC50 (Enterococcus faecalis; Ent. Faecalis 14078): 0.7 ± 0.1 µM | IC50 (Enterococcus faecalis; Ent. Faecalis 14115): > 10 µM | MIC (Enterococcus faecalis; read-out: Minimum Inhibitory Concentration (MIC), Ent. Faecalis 14078): 5.59 µM | MIC (Enterococcus faecalis; read-out: Minimum Inhibitory Concentration (MIC), Ent. Faecalis 14115): > 10 µM | IC50 (Corynebacterium jeikeium): 0.22 ± 0.03 µM | MIC (Corynebacterium jeikeium; read-out: Minimum Inhibitory Concentration (MIC)): 0.35 µM | IC50 (Streptococcus pyogenes; Strep. pyogenes 14149): 0.117 ± 0.009 µM | IC50 (Streptococcus pyogenes; Strep. pyogenes 14152): 0.08 ± 0.02 µM | MIC (Streptococcus pyogenes; read-out: Minimum Inhibitory Concentration (MIC), Strep. pyogenes 14149): 0.17 µM | MIC (Streptococcus pyogenes; read-out: Minimum Inhibitory Concentration (MIC), Strep. pyogenes 14152): 3.25 µM | IC50 (Streptococcus agalactiae; Strep. agalactiae 14150): 0.25 ± 0.06 µM | IC50 (Streptococcus agalactiae; Strep. agalactiae 14151): 0.33 ± 0.06 µM | IC50 (Streptococcus agalactiae; Strep. agalactiae 14153): 0.24 ± 0.04 µM | MIC (Streptococcus agalactiae; read-out: Minimum Inhibitory Concentration (MIC), Strep. agalactiae 14150): 0.35 µM | MIC (Streptococcus agalactiae; read-out: Minimum Inhibitory Concentration (MIC), Strep. agalactiae 14151): 4.03 µM | MIC (Streptococcus agalactiae; read-out: Minimum Inhibitory Concentration (MIC), Strep. agalactiae 14153): 0.36 µM | IC50 (S. epidermidis; S. epidermidis 14069): 0.8 ± 0.1 µM | IC50 (S. epidermidis; S. epidermidis 14085): 0.8 ± 0.1 µM | IC50 (S. epidermidis; S. epidermidis 14093): 1.3 ± 0.2 µM | IC50 (S. epidermidis; S. epidermidis 14134): 1.7 ± 0.2 µM | IC50 (S. epidermidis; S. epidermidis 14143): 2.7 ± 0.1 µM | MIC (S. epidermidis; read-out: Minimum Inhibitory Concentration (MIC), S. epidermidis 14069): 6.58 µM | MIC (S. epidermidis; read-out: Minimum Inhibitory Concentration (MIC), S. epidermidis 14085): 4 µM | MIC (S. epidermidis; read-out: Minimum Inhibitory Concentration (MIC), S. epidermidis 14093): 8.38 µM | MIC (S. epidermidis; read-out: Minimum Inhibitory Concentration (MIC), S. epidermidis 14134): 11.4 µM | MIC (S. epidermidis; read-out: Minimum Inhibitory Concentration (MIC), S. epidermidis 14143): > 12.5 µM
